Measurements: patent publication US20240287549A1, “METHODS AND COMPOSITIONS FOR EFFICIENT PRODUCTION OF BIOFUELS AND BIOPLASTICS FROM TOXIC FEEDSTOCKS” (Massachusetts Institute of Technology, priority 2021, published 2024)

Legend:
yeast [1] = conditions: previously established (ref. 16); cited from earlier work
[2] = test system: prototrophic wildtype (WT) strain FY4/5; assay: Constituent toxicity: ethanol titer of high-gravity fermentation in YSC with single inhibitors; type: cell-based, Saccharomyces cerevisiae; conditions: for effect of KCl alone on ethanol titer: plus 50 mM KCl only; for additional boost of ethanol production by K+/pH adjustment: 50 mM KCl and NH4OH to pH 6 vs unadjusted
Method: To systematically characterize the impact of these constituent toxicities, ethanol production was assessed in yeast synthetic complete medium (YSC) with the 3 inhibitors added individually at equimolar concentration. As a completely chemically-defined formulation with trace vitamins, minerals, and amino acids, YSC lacks the undefined extracts contained in “rich” media that could supply unknown components to boost or hinder tolerance. […] For the constituent toxicity studies, prototrophic strain FY4/5 was expanded in a starter culture of YSC containing 150 g/L glucose and grown overnight to approximately OD600=10. To mimic industrial high cell density conditions, 100 OD600 units of cells per fermentation were harvested, washed with an equal volume of room temperature distilled and deionized water, and cell pellets resuspended in 4 mL media for a production cell density of approximately OD600=25 (9.9 g DCW/L). Fermentation media consisted of 250 g/L glucose in YSC and were supplemented with (left to right in FIG. 1A) 6 mM NH4Cl, 50/6 mM KCl/NH4OH, 100/128 mM acetic acid/NH4Cl, 100/50/128 mM acetic acid/KCl/NH4Cl, 100/50/128 mM acetic acid/KCl/NH4OH, 100/11 mM furfural/NHCl, 100/50/11 mM furfural/KCl/NH4OH, 100/7 mM 2-furanmethanol (FF—OH)/NHCl, 100/50/7 mM FF—OH/KCl/NH4Cl, 100/50/7 mM FF—OH/KCl/NHOH, 100/7 mM 5-hydroxymethyl-furfural (HMF)/NH4Cl, 100/50/7 mM HMF/KCl/NHOH, 100/7 mM furan-2,5-dimethanol (HMF-OH)/NH4Cl, 100/50/7 mM HMF-OH/KCl/NH4Cl, or 100/50/7 mM HMF-OH/KCl/NH4OH.
Inhibitor supplementation for the additionally screened conditions in FIGS. 2A-2C were: 50/60 mM acetic acid/NHCl, 50/50/60 mM acetic acid/KCl/NH4OH, 150/180 mM acetic acid/NH4Cl, 150/50/180 mM acetic acid/KCl/NH4OH, 50/9 mM furfural/NH4Cl, 50/50/9 mM furfural/KCl/NH4OH, 50/6 mM FF—OH/NHCl, 50/50/6 mM FF—OH/KCl/NH4OH, 150/15 mM furfural/NH4Cl. 150/50/15 mM furfural/KCl/NH4OH, 150/9 mM FF—OH/NH4Cl, 150/50/9 mM FF—OH/KCl/NH4OH, 50/6 mM HMF/NHCl, 50/50/6 mM HMF/KCl/NH4OH, 50/6 mM HMF-OH/NH4Cl, 50/50/6 mM HMF-OH/KCl/NH4OH, 150/11 mM HMF/NH4Cl, 150/50/11 mM HMF/KCl/NH4OH, 150/9 mM HMF-OH/NHCl, or 150/50/9 mM HMF-OH/KCl/NH4OH. The “/” notation is used for visual abbreviation but indicates the addition of all components during preparation. […] Furfural (Sigma-Aldrich #185914), HMF (Sigma-Aldrich #H40807), FF—OH (Sigma-Aldrich #W249106), and HMF-OH (Santa Cruz Biotechnology #sc-210242, scbt.com) were added directly to media in their supplier, concentrated forms to minimize the addition of volume. […] Fermentation samples of 550 μL were harvested after 48 h, cells removed by centrifugation (16,870×g, 2 min), and supernatants 0.45 μm syringe-filtered (Fisher Scientific #50-109-8735, fishersci.com) into glass HPLC vials and stored at 4° C. until analysis. Similarly, pre-inoculation fermentation media were syringe-filtered and diluted 1:5 in water for HPLC verification of starting glucose and inhibitor concentrations.
Analytes were separated isocratically in 5 mM sulfuric acid at 65° C. using a flow rate of […]. Under these conditions, retention times were approximately as follows: glucose 9.2 min, xylose 9.9 min, lactic acid 13.1 min, glycerol 13.8 min, acetic acid 15.3 min, ethanol 22.3 min, HMF 30.2 min, and furfural 45.0 min.

[3] = test system: medium toxified to 40/28/55 mM furfural/HMF/acetic acid; conditions: Saccharomyces cerevisiae, pH 6
yeast [4] = conditions: prior experience
[5] = 100 mM of the substance in YSC, 250 g/L glucose, 48 h, 30 °C, no K+/pH adjustment
[6] = 100 mM of the substance, plus 50 mM KCl and NH4OH to pH 6

[Ca+2] [Ca^2+]
effect on fermentation (yeast [1]): fermentation-neutral

OCc1ccco1 [FF—OH, 2-furanmethanol]
ethanol titer [2, 5]: 35 ± 0.4 g/L
ethanol titer [2, 6]: 59 ± 0.5 g/L
effect of KCl alone on ethanol titer ([2]; 100 mM of the substance): improvements intermediate to those with K+/pH together
additional boost of ethanol production by K+/pH adjustment ([2]; 100 mM): 69%
tolerated more than furfural at equimolar concentration (ethanol output) ([2]; 100 mM, FF-OH vs FF, no K+/pH adjustment): 9 ×

O=Cc1ccc(CO)o1 [HMF, 5-hydroxymethyl-furfural]
ethanol titer [2, 5]: 34 ± 0.3 g/L
concentration tolerable by yeast for growth to commence [3]: approximately 1.5 g/L

OCc1ccc(CO)o1 [HMF-OH, furan-2,5-dimethanol]
ethanol titer [2, 6]: 69 ± 0.6 g/L
effect of KCl alone on ethanol titer ([2]; 100 mM of the substance): improvements intermediate to those with K+/pH together
additional boost of ethanol production by K+/pH adjustment ([2]; 100 mM): 39%
higher ethanol titer than cognate aldehyde ([2]; 100 mM, HMF-OH vs HMF, no K+/pH adjustment): 45%

[K+] [K^+]
concentration up to which effects are fermentation-beneficial (yeast [1]): at least 110 mM

Cl.N [NH4Cl]
concentration tolerated with no detectable changes on ethanol titer (yeast [4]): at least 200 mM

CC(=O)O [acetic acid]
ethanol titer [2, 5]: 17 ± 0.1 g/L
ethanol titer [2, 6]: 109 ± 0.6 g/L
effect of KCl alone on ethanol titer ([2]; 100 mM of the substance): no amelioration

O=Cc1ccco1 [furfural]
ethanol titer [2, 5]: 4 ± 0.3 g/L
